Earlier results, collected in US6537758B2, “Method for isolating nucleic acid from micronuclei separated from a cell” (The Salk Institute for Biological Studies, priority 1995, dated 2003).

What was measured:
[1] = tested on: cells containing DMs
[2] = tested on: HL60 cells; details: low concentrations of HU
[3] = tested on: mouse cells with unstably amplified dihydrofolate reductase (DHFR) genes

NC(=O)NO [hydroxyurea]
elimination of genes amplified on DMs ([1]; HU at concentrations that do not inhibit DNA synthesis or ribonucleotide reductase): eliminated | micronuclei formation ([1]; HU-treatment of cells containing DMs): increase in micronuclei formation | c-myc expression [2]: decreased c-myc expression | differentiation [2]: induction of differentiation | number of c-myc-containing DMs [2]: reduced the number of c-myc-containing DMs | rate of loss of unstably amplified DHFR genes [3]: increase the rate of loss
